A short description of this series: Aggregate number from ratio of molecular weights at pH 7 and pH 13 (GPC fractions). The format is physicochemical. The method, then: The aggregate number of a β-glucan sample under a specified set of conditions can be determined by determining the average molecular weight of the polymer under those conditions. The β-glucan is then denatured, that is, subjected to conditions which separate any aggregates into their component single polymer chains. The average molecular weight of the denatured polymer is then determined. The ratio of the molecular weights of the aggregated and denatured forms of the polymer is the aggregate number. A typical β-glucan composition includes molecules having a range of chain lengths, conformations and molecular weights. Thus, the measured aggregate number of a β-glucan composition is the mass average aggregate number across the entire range of β-glucan molecules within the composition. […] For example, a measured aggregate number of about 6 or more is characteristic of a composition in which the β-glucan is substantially in the triple helix aggregate conformation. […]
The molecular weights of fractions A and C were determined at 25° C. at both pH 7 and pH 13, and at 37° C. at pH 7. […] Thus, at a given temperature the ratio of the molecular weights determined at pH 7 and pH 13 is the aggregate number at pH 7 at that temperature. […]

For scleroglucan, the aggregate number entry is, setting by setting: (pH 7, 25° C.) “about 3”; (pH 7, 37° C.) “about 3”.

Source of the values: patent US20070059310A1, “Therapeutic combination compositions and methods of using same” (priority 2005, published 2007).
